Values of other authors as cited in patent US4390710A, “Catalyst system for manufacturing p-chlorophenyl-N-methyl carbamate” (PPG Industries, Inc., priority 1981, dated 1983).

Settings: organic herbicides such as isopropyl-N-(3-chlorophenyl) carbamate and isopropyl-N-phenyl carbamate

For `CNC(=O)Oc1ccc(Cl)cc1` [p-chlorophenyl-N-methyl carbamate], the “extending the soil life of organic herbicides” value is listed as “capable of extending the soil life of many organic herbicides”.
